Source: US20210299094A1, “METHODS OF UPREGULATING TIPARP AS ANTICANCER STRATEGIES” (CORNELL UNIVERSITY, priority 2018, published 2021)
Read-outs that look alike come from different tables or passages of the source. Where a SMILES comes first, the peptide text is derived from it. The star is where a group is joined. Cbz = O=C(OCc1ccccc1)*

Experiments:
TiPARP mRNA [1] = system: TiPARP mRNA
Description: (§1) Quantitative Real Time PCR (qRT-PCR)
(§2) Total RNA. was isolated using RNeasy Mini kit (Qiagen) according to the manufacturer's instructions. 0.2 μg sample of total RNA was employed for cDNA synthesis using the Superscript III First-Strand Synthesis kit (Invitrogen) following the manufacturer's instructions. For quantitative real-time PCR analysis, iTaq Universal SYBR Green Supermix (Bio-Rad) was used following the manufacturer's instructions. The reaction was performed with QuantStudio™ 7 Flex Real-Time PCR System (APPLIED BIOSYSTEMS™). In each run, melt curve analysis was performed to ensure the amplification of a single product. The relative expression of each gene, normalized to actin, was calculated using the 2^−ΔΔCt method. The following primers were used for qRT-PCR: VEGF: 5′-[…]-3′ (SEQ ID NO: 24) and 5′-[…]-3′ (SEQ ID NO: 25); GLUT1: 5′-[…] CTAAA-3′ (SEQ ID NO: 26) and 5′˜[…]-3′ (SEQ ID NO: 27); PDK1: 5′-[…]-3′ (SEQ ID NO: 28) and 5′-[…]-3′ (SEQ ID NO: 29); WSBJ: 5′-[…]-3′ (SEQ ID NO: 30) and 5′-[…]-3′ (SEQ ID NO: 31); LDHA: 5′-[…]-3′ (SEQ ID NO: 32) and 5′-[…] CAG-3′ (SEQ ID NO: 33); CXCR4: 5′-[…]-3′ (SEQ ID NO: 34) and 5′-[…]-3′ (SEQ ID NO: 35); TIPARP: 5′-[…]-3′ (SEQ ID NO: 36) and 5′-[…]-3′ (SEQ ID NO: 37), ACTIN: 5′-[…]-3′ (SEQ ID NO: 38) and 5′-[…]-3′ (SEQ ID NO: 39).

TiPARP mRNA [2] = system: TiPARP mRNA; remark: listed apart in the source
Description: as §1, §2

TiPARP mRNA [3] = system: TiPARP mRNA; remark: listed apart in the source
Description: as §1, §2

TiPARP mRNA [4] = settings: human
Description: as §1, §2

HCT116 [5] = assay: IC50 in HCT116 cell line; format: cell-based; settings: Homo sapiens, HCT-116
SKBR3 (ER neg.) = assay: IC50 in SKBR3 (ER neg.) cell line; format: cell-based; settings: Homo sapiens, SK-BR-3
MCF-7 (ER pos.) = assay: IC50 in MCF-7 (ER pos.) cell line; format: cell-based; settings: Homo sapiens, MCF7
MDA-MB-231 (ER negative) = assay: IC50 in MDA-MB-231 (ER negative) cell line; format: cell-based; settings: Homo sapiens
MDA-MB-468 (ER negative) = assay: IC50 in MDA-MB-468 (ER negative) cell line; format: cell-based; settings: Homo sapiens
BT549 (ER negative) = assay: IC50 in BT549 (ER negative) cell line; format: cell-based; settings: Homo sapiens, BT-549
[6] = system: HME1 (normal mammary epithelial cell); assay: IC50 in HME1 (normal mammary epithelial cell); format: cell-based
HCT116 [7] = assay: Growth inhibition IC50 in HCT116 cells, control vs TiPARP knockdown; format: cell-based; settings: Homo sapiens
Description: (§3) For transient overexpression of proteins of interest, cells were transfected with expression vectors using FuGene 6 (Promega, E2691) according to the manufacturer's protocol. To stably knock down TiPARP, lentivirus was produced by transfecting HEK 293T cells with pCMV-ΔR8.2 (packaging vector), pM2D.G (envelope vector) and shRNAs (Sigma). Virus-containing medium was harvested 24 hr after transfection. Target ceils were seeded in a 6-well plate 20 hr prior to transduction (3×10^5 cells per well). At the confluence of 50%, target cells were transduced with virus particles in medium supplemented with 5 μg/ml polybrene (Sigma), and incubated for 6 hr. Remove supernatant and add fresh medium to the cells. 72 hr after infection, 2 μg/mL puromycin was added to the cell culture media for 10 days to select stably transduced target cells.
(§4) IC50 values for Biochanin A was measured in HCT116, SKBR3 and MCF-7 cell lines where TiPARP was knocked down.

SKBR3 = assay: Growth inhibition IC50 in SKBR3 cells, control vs TiPARP knockdown; format: cell-based; settings: Homo sapiens
Description: as §3, §4

MCF-7 = assay: Growth inhibition IC50 in MCF-7 cells, control vs TiPARP knockdown; format: cell-based; settings: Homo sapiens
Description: as §3, §4

TiPARP mRNA [8] = assay: RT-PCR analysis of TiPARP mRNA level in HEK 293T treated with hypoxia-mimetic agents; format: cell-based, human; settings: FIG. 1C
Excerpt: FIGS. 1A-1F. TiPARP is a direct target gene of HIFs. (A) A schematic representation of TiPARP promoter. Core sequence of hypoxia-response element (HRE) is highlighted in red. (B) Expression of TiPARP mRNA in HCT116 and MCF-7 cells analyzed by qRT-PCR under normoxia/hypoxia (mean and s.d. of three independent experiments). (C) RT-PCR analysis of TiPARP mRNA level in HEK 293T treated with hypoxia-mimetic agent DMOG and DFO, or transfected with HA tagged HIF-1α. Expression of endogenous or HA-HIF-1α was detected by HIF-1α antibody on western blot (bottom), (D) Schematic representation of the luciferase reporter construct with wild type (WT) or mutated (Mut) HRE. (E) HIF-1α transactivation measured by luciferase reporter with WT or mutant HRE from TiPARP promoter. Transfection efficiencies were normalized to co-transfected Renilla-luciferase. Mean and standard deviation (s.d.) correspond to four technical replicates, representative of three independent experiments. NS, not significant. (F) ChIP assay assessing the chromatin binding of HIF-1α to HRE in TiPARP promoter, RNA polymerase II (Pol II) was used as a positive control.
TiPARP was previously characterized as a TCDD-responsive gene regulated by AHR (Ma, Q. Arch Biochem Biophys 404, 309-316 (2002); Ma, Q. et al, Biochem Biophys Res Commun 289, 499-506, (2001)). […]

cMyc protein levels = cMyc protein levels in TiPARP-overexpressing HCT 116C cells with protease inhibitor treatment; format: cell-based, human; settings: 20 μM, over 2 hours, FIG. 10B
Excerpt: FIGS. 10A-10E. (A) Overexpression of active TiPARP decreases cMyc protein levels. […] (B) TiPARP regulates cMyc protein levels by regulating the protein degradation pathway. […] (D) Knockdown of TiPARP in HCT116 cells caused ERα protein levels to increase. (E) Knockdown of TiPARP in MCF-7 cells caused ERα protein levels to increase.
The inventors also observed that overexpression of active TiPARP decreases cMyc protein levels.
The inventors also discovered the TiPARP regulates cMyc protein levels by regulating the protein degradation pathway.

In the case of `c1ccc2c(Cc3c[nH]c4ccccc34)c[nH]c2c1` [Diindolylmethane, diindolylmethane], the “TiPARP mRNA fold induction” value (TiPARP mRNA [1]; human) is reported as 3.3 fold, the “TiPARP mRNA fold induction” value (TiPARP mRNA [2]; human) is reported as 4.2 fold and the “TiPARP mRNA fold induction” value (TiPARP mRNA [3]; human) is reported as 8.0 fold. For the same molecule, the “TiPARP mRNA fold induction” value (TiPARP mRNA [4]) was 3.2 fold, the IC50 (HCT116 [5]) was 39 µM and the IC50 (SKBR3 (ER neg.)) was 45 µM. For the same molecule, the IC50 (MCF-7 (ER pos.)) was 31 µM, the IC50 (MDA-MB-231 (ER negative)) was 47.9 µM and the IC50 (MDA-MB-468 (ER negative)) was 13.5 µM. It also gave an IC50 (BT549 (ER negative)) of 32.1 µM and an IC50 [6] of 51.2 µM.

In the case of `COc1ccc(-c2coc3cc(O)cc(O)c3c2=O)cc1` [Biochanin A], the “TiPARP mRNA fold induction” value (TiPARP mRNA [1]; human) is reported as 5.6 fold, the “TiPARP mRNA fold induction” value (TiPARP mRNA [2]; human) is reported as 8.8 fold and the “TiPARP mRNA fold induction” value (TiPARP mRNA [3]; human) is reported as 2.5 fold. It also gave an IC50 (HCT116 [5]) of 20 µM, an IC50 (SKBR3 (ER neg.)) of 20 µM and an IC50 (MCF-7 (ER pos.)) of 19.7 µM. For the same molecule, the IC50 (HCT116 [7]; HCT-116, HCT116, Ctrl) was 30 µM, the IC50 (HCT116 [7]; HCT-116, HCT116, TiPARP KD (40%)) was 54.8 µM and the IC50 (SKBR3; SK-BR-3, SKBR3, Ctrl) was 52.3 µM. The IC50 (SKBR3; SK-BR-3, SKBR3, TiPARP KD (40%)) was 83.3 µM, the IC50 (MCF-7; MCF7, MCF-7, Ctrl) was 93.4 µM and the IC50 (MCF-7; MCF7, MCF-7, TiPARP KD (40%)) was 174 µM.

`COc1ccc(-c2coc3cc(O)ccc3c2=O)cc1` [Formonometin, formonometin] was tested, and the “TiPARP mRNA fold induction” value (TiPARP mRNA [1]) was 1.7 fold, the “TiPARP mRNA fold induction” value (TiPARP mRNA [2]) was 2.5 fold and the “TiPARP mRNA fold induction” value (TiPARP mRNA [3]) was 2.3 fold.

With `COc1ccc2[nH]c([S+]([O-])Cc3ncc(C)c(OC)c3C)nc2c1` (stereo not drawn) [Omerprazole, omeprazole] the “TiPARP mRNA fold induction” value (TiPARP mRNA [1]; human) was 0.81 fold, the “TiPARP mRNA fold induction” value (TiPARP mRNA [2]; human) was 2.3 fold and the “TiPARP mRNA fold induction” value (TiPARP mRNA [3]; human) was 1.7 fold.

With `COC(=O)CNC(=O)C(=O)OC` [DMOG, dimethyloxalylglycine] the “TiPARP mRNA level” value (TiPARP mRNA [8]) was “increased”.

In the case of `OCc1c[nH]c2ccccc12` [indole-3-carbinol], the “TiPARP mRNA fold induction” value (TiPARP mRNA [1]) is reported as 1.5 fold, the “TiPARP mRNA fold induction” value (TiPARP mRNA [2]) is reported as 1.4 fold and the “TiPARP mRNA fold induction” value (TiPARP mRNA [3]) is reported as 1.4 fold.

For `CC(=O)N(O)CCCCCNC(=O)CCC(=O)N(O)CCCCCNC(=O)CCC(=O)N(O)CCCCCN` [DFO, desferrioxamine], the “TiPARP mRNA level” value (TiPARP mRNA [8]) was “increased”.

`Oc1ccc(C=Cc2cc(O)cc(O)c2)cc1` [Resveratrol, resveratrol] showed an IC50 (HCT116 [5]) of 46 µM, an IC50 (SKBR3 (ER neg.)) of 35.3 µM and an IC50 (MCF-7 (ER pos.)) of 27.7 µM. For the same molecule, the IC50 (MDA-MB-231 (ER negative)) was 90.4 µM, the IC50 (MDA-MB-468 (ER negative)) was 97.3 µM and the IC50 (BT549 (ER negative)) was 23.1 µM. For the same molecule, the IC50 [6] was 189 µM.

In the case of `CC(C)C[C@@H](C=O)NC(=O)[C@H](CC(C)C)NC(=O)[C@H](CC(C)C)NC(=O)OCc1ccccc1` [MG132] (Cbz-Leu-Leu-Leu-aldehyde), the “effect on TiPARP-overexpression-induced decrease of cMyc protein levels” value (cMyc protein levels) is reported as “effectively blocked the effect of TiPARP overexpression”.
